Results from patent EP4775577A1, “RAS INHIBITOR” (Tyligand Bioscience (Shanghai) Limited, priority 2023, dated 2025).

How the values were obtained:
[1] = system: KRAS G12V mutant NCI-H727 cells; assay: Proliferation inhibition of NCI-H727 cells, 3D CellTiter-Glo assay (Method B); type: cell-based, human; conditions: Homo sapiens, NCI-H727, 120 h, Method B; 3D culture with 0.65% methylcellulose, 5 days, CTG; read-out: NCI-H727 IC50/nM
Summary of the method: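 Cells grown in 3D medium (RPMI-1640, 10% FBS, 0.65% methylcellulose) overnight, then treated 5 days at 37 °C, 5% CO2 with 9 threefold dilutions from 10 µM top working concentration, duplicate wells. CellTiter-Glo luminescence read; IC50 (nM) fitted by dose-response-inhibition equation.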

Ba/F3-KRAS-G12C-Q99L = assay: Ba/F3 KRAS-mutant cell proliferation inhibition (CellCounting-Lite 2.0); type: cell-based; conditions: Mus musculus, BaF3, Ba/F3-KRAS-G12C-Q99L (KC-2611), 72 h
Description: (§1) This experiment evaluated the proliferation inhibitory activity of the compounds of the present invention against Ba/F3-KRAS mutant cell lines by using the CellCounting-Lite®2.0 method.
(§2) The following materials, reagents, and instruments were used in this experiment: Cells were all obtained from Kangyuan Bochuang Biotechnology (Beijing) Co., Ltd. RPMI-1640 (Hyclone, SH30809.01); fetal bovine serum (FBS) was used. (GIBCO, 10099-141); Phosphate-buffered saline (PBS) (Solarbio, P1020-500); CellCounting-Lite 2.0 Luminescent Cell Viability Assay (Vazyme, DD1101-02); 96-well plate (Absin, abs7016); Multifunctional microplate reader (BMG LABTECH, CLARIOstar® Plus); CO2 incubator (Thermo Scientific, Model 3100 Series).
(§3) All cell lines were cultured in complete medium at 37°C and 5% CO2. Cells in the logarithmic growth phase were harvested and counted using a platelet counter. Cell viability was assessed using the trypan blue exclusion method to ensure a viability of over 90%. Cell density was adjusted using complete medium (RPMI 1640+10% FBS) and then seeded into 96-well cell culture plates at 90 µL per well, for a total of 3000 cells. The cells in the 96-well plates were cultured at 37°C and 5% CO2. A 10-fold drug solution was prepared using complete medium, and then 10 µL of each serially diluted compound was transferred to the corresponding wells of the 96-well cell culture plate, with two replicates for each drug concentration. The cells in the drug-treated 96-well plates were cultured at 37°C and 5% CO2 for 72 h, followed by CellCounting-Lite 2.0 analysis.
(§4) The CellCounting-Lite 2.0 Luminescent Cell Viability Assay reagent was thawed and the cell plate was equilibrated to room temperature for 30 minutes. An equal volume of CellCounting-Lite 2.0 Luminescent Cell Viability Assay solution was added to each well and the plate was shaken on an orbital shaker for 5 minutes to lyse the cells. The cell plate was placed at room temperature for 20 minutes to stabilize the cryo-luminescence signal. The cryo-luminescence values were read and the data were collected.
(§5) Data was analyzed using GraphPad Prism 7.0 software. A nonlinear S-curve regression was used to fit the data to derive the dose-response curve, and the IC50 value was calculated from this curve. [formula]

Ba/F3-KRAS-G13D = assay: as above; type: cell-based; conditions: Mus musculus, BaF3, Ba/F3-KRAS-G13D (KC-1436), 72 h
Description: as §1, §2, §3, §4, §5

Ba/F3-KRAS-G12C-R68M = assay: as above; type: cell-based; conditions: Mus musculus, BaF3, Ba/F3-KRAS-G12C-R68M (KC-2604), 72 h
Description: as §1, §2, §3, §4, §5

Ba/F3-KRAS-G12C-A59S = assay: as above; type: cell-based; conditions: Mus musculus, BaF3, Ba/F3-KRAS-G12C-A59S (KC-2605), 72 h
Description: as §1, §2, §3, §4, §5

Ba/F3-KRAS-G12C-H95L = assay: as above; type: cell-based; conditions: Mus musculus, BaF3, Ba/F3-KRAS-G12C-H95L (KC-3683), 72 h
Description: as §1, §2, §3, §4, §5

Ba/F3-KRAS-Q61H = assay: as above; type: cell-based; conditions: Mus musculus, BaF3, Ba/F3-KRAS-Q61H (KC-2620), 72 h
Description: as §1, §2, §3, §4, §5

Ba/F3-KRAS-G12C-H95R = assay: as above; type: cell-based; conditions: Mus musculus, BaF3, Ba/F3-KRAS-G12C-H95R (KC-2618), 72 h
Description: as §1, §2, §3, §4, §5

Pharmacokinetics in mice = conditions: mouse, in vivo, po, 20 mg/kg
Description: Male CD-1 mice, aged 6-8 weeks, were purchased from Zhejiang Vital River Laboratory Animal Co., Ltd.
For the PO administration group, compounds were formulated in 0.5% Tween 80 and 99.5% (0.5%MC (400cp)) vehicle or 0.5%MC (400cp) vehicle to a final concentration of 1 mg/mL or 2 mg/mL for each compound. The drug formulation was administered to CD-1 mice via gavage at a dose of 10 mL/kg. Blood samples were collected from the submandibular vein or other suitable means at 15 min, 30 min, 1 h, 2 h, 4 h, 6 h, 8 h, and 24 h after administration. The blood samples were centrifuged at low temperature for 5 minutes, and the plasma was collected and stored at -80°C for analysis.
10 µL of plasma sample was taken, 200 µL of methanol containing an internal standard as a precipitant was added to precipitate plasma proteins, the compounds to be tested in the plasma was extracted, centrifuged at low temperature, and 10 µL of the supernatant was injected. The drug concentration in blood plasma was analyzed by LC-MS/MS. The pharmacokinetic parameters were calculated using Winnonlin based on the blood drug concentration data at different time points.

[2] = 0.05uM, read-out: Inhibition rate% @0.05uM
[3] = 1uM, read-out: Inhibition rate% @1uM

Which IC50 [1] does the source give for CCN1CC/C(=C\F)[C@](C)(COc2nc(N3Cc4c(COC)c(C(=O)N(C)C)nn4CC[C@@H]3C)c3cc(Cl)c(-c4c(F)ccc5sc(N)c(C#N)c45)c(F)c3n2)C1 (single isomer, unassigned) [Example 228A] here?
Its IC50 is < 1.5 nM.

What about the inhibition at 0.05 µM (Ba/F3-KRAS-G12C-Q99L; [2]) of the same compound?
Its inhibition at 0.05 µM is 93.9%.

What about the inhibition at 1 µM (Ba/F3-KRAS-G12C-Q99L; [3]) of the same compound?
The inhibition at 1 µM was 98.1%.

What about the inhibition at 0.05 µM (Ba/F3-KRAS-G13D; [2]) of the same compound?
Its inhibition at 0.05 µM is 88.1%.

What about the inhibition at 1 µM (Ba/F3-KRAS-G13D; [3]) of the same compound?
Its inhibition at 1 µM is 98.2%.

What about the inhibition at 0.05 µM (Ba/F3-KRAS-G12C-R68M; [2]) of the same compound?
Its inhibition at 0.05 µM is 91.6%.

What about the inhibition at 1 µM (Ba/F3-KRAS-G12C-R68M; [3]) of the same compound?
Its inhibition at 1 µM is 96.6%.

And the inhibition at 0.05 µM (Ba/F3-KRAS-G12C-A59S; [2])?
The inhibition at 0.05 µM was 83.3%.

What about the inhibition at 1 µM (Ba/F3-KRAS-G12C-A59S; [3]) of the same compound?
The inhibition at 1 µM was 97.4%.

And the inhibition at 0.05 µM (Ba/F3-KRAS-G12C-H95L; [2])?
The inhibition at 0.05 µM was 99.7%.

And the inhibition at 1 µM (Ba/F3-KRAS-G12C-H95L; [3])?
Its inhibition at 1 µM is 100%.

What about the inhibition at 0.05 µM (Ba/F3-KRAS-Q61H; [2]) of the same compound?
Its inhibition at 0.05 µM is 99.1%.

What about the inhibition at 1 µM (Ba/F3-KRAS-Q61H; [3]) of the same compound?
Its inhibition at 1 µM is 99.6%.

And the inhibition at 0.05 µM (Ba/F3-KRAS-G12C-H95R; [2])?
Its inhibition at 0.05 µM is 71.9%.

And the inhibition at 1 µM (Ba/F3-KRAS-G12C-H95R; [3])?
Its inhibition at 1 µM is 98.6%.

And the AUC(0-t) at 8 h (Pharmacokinetics in mice)?
Its AUC(0-t) at 8 h is 4130 ng·h/mL.
